pIC50: −log10 of the molar value.
Molecular target: purified human TDO protein (Homo sapiens (Human), UniProt P48775)
Experiment: Enzymatic TDO assay
Format: biochemical
Procedure: Differently from the IDO activity assay, no methylene blue is added to the assay. The inhibitors were initially diluted in DMSO at 100 mM and were diluted in potassium phosphate 50 mM, added to the reaction mixture at final concentrations raging from 300 μM to 5 nM and preincubated with the enzyme for 5 min at 25° C. The reaction was started by addition of L-tryptophan to 200 μM and incubated 15 min at 37° C. The reaction was stopped by addition of 0.5 vol of 30% trichloroacetic acid and incubated 30 min at 60° C. to hydrolyze N-formylkynurenine to kynurenine. The reaction was centrifuged at 3400 g for 5 min to remove precipitated protein and the supernatant was reacted with 2% (w/v) of p-dimethylaminobenzaldehyde in acetic acid. The reaction was incubated 10 min at 25° C. and read at 480 nm in a spectrophotometer. Control samples with no TDO inhibitor, or with no TDO enzyme were used as controls to set the parameters for the non-linear regressions necessary for determination of the IC50 for each compound. Nonlinear regressions and determination of the IC50 values were performed using the GraphPad Prism 4 software.

purified human TDO protein, sequence (P48775 whole entry): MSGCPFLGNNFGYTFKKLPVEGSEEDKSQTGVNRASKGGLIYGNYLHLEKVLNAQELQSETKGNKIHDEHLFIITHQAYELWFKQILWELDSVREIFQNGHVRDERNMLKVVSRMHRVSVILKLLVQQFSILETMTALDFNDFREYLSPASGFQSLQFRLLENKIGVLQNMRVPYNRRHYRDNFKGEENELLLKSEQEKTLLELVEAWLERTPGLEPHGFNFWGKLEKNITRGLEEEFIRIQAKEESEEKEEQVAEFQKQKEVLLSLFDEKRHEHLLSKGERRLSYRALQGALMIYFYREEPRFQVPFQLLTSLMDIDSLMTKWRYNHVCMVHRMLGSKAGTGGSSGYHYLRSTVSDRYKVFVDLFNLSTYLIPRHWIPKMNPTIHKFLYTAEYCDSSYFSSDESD

Structure (SMILES) | pIC50
O=C(CC1c2ccccc2-n2cncc21)C1CCCCC1 (centres unmarked) [Compound 27, 1-cyclohexyl-2-(9H-imidazo[1,5-a]indol-9-yl)ethan-1-one] | > 6.00
O=C(CC1c2ccccc2-c2cnnn21)C1CCC(F)(F)CC1 (centres unmarked) [Compound 54, 2-(8H-[1,2,3]triazolo[5,1-a]isoindol-8-yl)-1-(4,4-difluorocyclohexyl)ethan-1-one] | < 4.00
OC(CC1c2ccccc2-n2cncc21)C1CCCCC1 (centres unmarked) [Compound 70, 1-cyclohexyl-2-(9H-imidazo[1,5-a]indol-9-yl)ethan-1-ol] | > 6.00
OC(CC1c2ccccc2-c2nncn21)C1CCCCC1 (centres unmarked) [Compound 69, 2-(5H-[1,2,4]triazolo[3,4-a]isoindol-5-yl)-1-cyclohexylethan-1-ol] | < 4.00

Continued, values first:

pIC50 | Structure (SMILES)
< 4.00 | O=C(CC1c2ccccc2-c2nncn21)C1CCCCC1 (centres unmarked) [Compound 43, 2-(5H-[1,2,4]triazolo[3,4-a]isoindol-5-yl)-1-cyclohexylethan-1-one]
4.00 to 5.00 | O=C(CC1c2ccccc2-c2cnnn21)C1CCCCC1 (centres unmarked) [Compound 53, 2-(8H-[1,2,3]triazolo[5,1-a]isoindol-8-yl)-1-cyclohexylethan-1-one]
5.00 to 6.00 | OC(CC1c2ccccc2-c2cnnn21)C1CCC(F)(F)CC1 (centres unmarked) [Compound 68, 2-(8H-[1,2,3]triazolo[5,1-a]isoindol-8-yl)-1-(4,4-difluorocyclohexyl)ethan-1-ol]
5.00 to 6.00 | c1ccc2c(c1)Cc1cn[nH]c1-2 [Compound 101]
4.00 to 5.00 | OC(CC1c2ccccc2-c2cnnn21)C1CCCCC1 (centres unmarked) [Compound 66, 2-(8H-[1,2,3]triazolo[5,1-a]isoindol-8-yl)-1-cyclohexylethan-1-ol]

Molecular target: purified human IDO protein (Homo sapiens (Human), UniProt P14902)
Experiment: Enzymatic IDO assay
Format: biochemical
Procedure: Expression vectors for human indoleamine-2,3-dioxygenase (IDO) protein were prepared by amplification of a 1219 bp fragment of the sequence present in vector phIDO6His cDNA with primers 5′-ggagcatgcta[…]-3′ (SEQ ID NO: 1) and 5′gagagatct[…]-3′ (SEQ ID NO: 2) and cloning the SphI-BglII 1213 bp fragment into pQE70 (Qiagen), to yield vector pQE70-hIDO. This construct adds 2 extra amino acids and a 6-Histidine tag to the C-terminus of the natural human IDO protein while preserving intact the natural start codon and N-terminus amino acid sequence.
Plasmid pQE70-hIDO was transformed into M15(pREP4) cells (Qiagen) and clones were selected in LB-agar plates supplemented with carbenicillin 50 μg/mL and kanamycin 30 μg/mL. Protein expression was carried out by growing an overnight culture of the M15pREP4/pQE70-hIDO clone in 100 mL LB supplemented with 100 μg/mL carbenicillin, 50 μg/mL kanamycin and 50 μg/mL of L-tryptophan (LBCKT medium). 40 mL of this culture were inoculated into 750 mL of LBCKT for 4 hours at 37° C. This culture was diluted 1:10 into LBCKT medium and cultured for another 2 hours at 37° C. until OD600 was higher than 0.8. At this point the cultures were inoculated with Hemin to 7 μM and L-Tryptophan to 75 μg/mL and incubated at 37° C. for 2 h. Induction of protein expression was carried out by supplementing the cultures with IPTG to 1 mM, PMSF to 200 μM, EDTA to 1 mM and L-tryptophan to 50 μg/mL. Incubation was continued for additional 16 h at 25° C. Cells were collected by centrifugation, and the cell pellets were washed with PBS buffer supplemented with 200 μM PMSF and 1 mM EDTA and stored at −80° C. until protein purification.
The equivalent of 16 L of culture were processed in one batch of purification. Cell pellets were thawed, resuspended in 50 mM potassium phosphate buffer pH 7.0, 200 μM PMSF, 1 mM EDTA, 1 mg/mL lysozyme to 10 mL per liter of bacterial culture and incubated 30 minutes on ice. Cells were then lysed by sonication. Cell lysates were centrifuged 20 min at 20000 g and the supernatant was filtered through 0.45 μm filters. The filtered supernatant was loaded onto a 60 mL phosphocellulose column equilibrated with 50 mM potassium phosphate buffer pH 6.5 (KPB) at 1-3 mL/min. The column was washed with 3 volumes of 50 mM KPB, 3 volumes of 100 mM KPB and the protein was eluted with 15 volumes of a linear gradient of 100-500 mM KPB. Fractions were collected and IDO activity assay was performed by measuring kynurenine production. This was carried out by mixing 50 μL of each fraction with 100 μL of reaction mix to yield a final concentration of 50 mM KPB buffer, 20 mM ascorbic acid, 200 μg/mL catalase, 20 μM methylene blue and 400 μM L-tryptophan. […] Collected fractions were assayed by IDO enzymatic assay described above and the positive fractions were pooled and concentrated by ultrafiltration and dialyzed against a buffer containing 250 mM KPB, 50% glycerol.
The inhibitors were initially diluted in DMSO at 100 mM and were diluted in potassium phosphate 50 mM, added to the reaction mixture at final concentrations raging from 1 mM to 5 nM and preincubated with the enzyme for 5 min at 25° C. The reaction was started by addition of L-tryptophan to 200 μM and incubated 15 min at 37° C. The reaction was stopped by addition of 0.5 vol of 30% trichloroacetic acid and incubated 30 min at 60° C. to hydrolyze N-formylkynurenine to kynurenine. The reaction was centrifuged at 3400 g for 5 min to remove precipitated protein and the supernatant was reacted with 2% (w/v) of p-dimethylaminobenzaldehyde in acetic acid. The reaction was incubated 10 min at 25° C. and read at 480 nm in a spectrophotometer.

purified human IDO protein, sequence (P14902 whole entry P110S/E119G): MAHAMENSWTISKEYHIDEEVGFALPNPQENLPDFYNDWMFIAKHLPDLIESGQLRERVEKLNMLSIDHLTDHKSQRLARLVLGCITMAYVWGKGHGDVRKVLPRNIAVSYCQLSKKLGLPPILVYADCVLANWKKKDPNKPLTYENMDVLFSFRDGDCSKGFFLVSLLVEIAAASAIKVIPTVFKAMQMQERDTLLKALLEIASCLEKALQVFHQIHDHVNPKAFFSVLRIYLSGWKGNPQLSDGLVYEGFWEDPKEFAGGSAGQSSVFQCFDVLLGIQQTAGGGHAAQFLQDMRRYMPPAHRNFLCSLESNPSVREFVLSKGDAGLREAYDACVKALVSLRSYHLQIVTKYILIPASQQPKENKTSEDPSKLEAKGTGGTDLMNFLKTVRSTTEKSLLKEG

Structure (SMILES) | pIC50
O=C(CC1c2ccccc2-n2cncc21)C1CCCCC1 (centres unmarked) [Compound 27, 1-cyclohexyl-2-(9H-imidazo[1,5-a]indol-9-yl)ethan-1-one] | 5.00 to 6.00
O=C(CC1c2ccccc2-c2cnnn21)C1CCC(F)(F)CC1 (centres unmarked) [Compound 54, 2-(8H-[1,2,3]triazolo[5,1-a]isoindol-8-yl)-1-(4,4-difluorocyclohexyl)ethan-1-one] | < 4.00
OC(CC1c2ccccc2-c2nncn21)C1CCCCC1 (centres unmarked) [Compound 69, 2-(5H-[1,2,4]triazolo[3,4-a]isoindol-5-yl)-1-cyclohexylethan-1-ol] | < 4.00

Second part, the molecule after the results:

pIC50 | Structure (SMILES)
< 4.00 | O=C(CC1c2ccccc2-c2nncn21)C1CCCCC1 (centres unmarked) [Compound 43, 2-(5H-[1,2,4]triazolo[3,4-a]isoindol-5-yl)-1-cyclohexylethan-1-one]
4.00 to 5.00 | O=C(CC1c2ccccc2-c2cnnn21)C1CCCCC1 (centres unmarked) [Compound 53, 2-(8H-[1,2,3]triazolo[5,1-a]isoindol-8-yl)-1-cyclohexylethan-1-one]
4.00 to 5.00 | OC(CC1c2ccccc2-c2cnnn21)C1CCC(F)(F)CC1 (centres unmarked) [Compound 68, 2-(8H-[1,2,3]triazolo[5,1-a]isoindol-8-yl)-1-(4,4-difluorocyclohexyl)ethan-1-ol]
< 4.00 | c1ccc2c(c1)Cc1cn[nH]c1-2 [Compound 101]
4.00 to 5.00 | OC(CC1c2ccccc2-c2cnnn21)C1CCCCC1 (centres unmarked) [Compound 66, 2-(8H-[1,2,3]triazolo[5,1-a]isoindol-8-yl)-1-cyclohexylethan-1-ol]
